# In US7026326B2, “Substituted heterocyclic compounds and methods of use” (Amgen Inc., priority 2002, dated 2006):
# Tested on: LPS induced TNF release
# Test: Lipopolysaccharide-Activated THP1 Cell TNF Production Assay
# Type: cell-based
# Details: Homo sapiens, THP-1; THP1 cells, bacterial LPS, TNF-α secretion at 37° C. for 3 h
# Experimental: Lipopolysaccharide-Activated THP1 Cell TNF Production Assay
# THP1 cells are resuspended in fresh THP1 media (RPMI 1640, 10% heat-inactivated FBS, 1xPGS, 1XNEAA, plus 30 μM βME) at a concentration of 1E6/mL. One hundred microliters of cells per well are plated in a polystyrene 96-well tissue culture. One microgram per mL of bacterial LPS is prepared in THP1 media and is transferred to the wells. Test compounds are dissolved in 100% DMSO and are serially diluted 3 fold in a polypropylene 96-well microtiter plate (drug plate). HI control and LO control wells contain only DMSO. One microliter of test compound from the drug plate followed by 10 μL of LPS are transferred to the cell plate. The treated cells are induced to synthesize and secrete TNF-α at 37° C. for 3 h. Forty microliters of conditioned media are transferred to a 96-well polypropylene plate containing 110 μL of ECL buffer (50 mM Tris-HCl pH 8.0, 100 mM NaCl, 0.05% Tween 20, 0.05% NaN3 and 1% FBS) supplemented with 0.44 nM MAB610 monoclonal Ab (R&D Systems), 0.34 nM ruthenylated AF210NA polyclonal Ab (R&D Systems) and […] sheep anti-mouse M280 Dynabeads (Dynal). After a 2 h incubation at room temperature with shaking, the reaction is read on the ECL M8 Instrument (IGEN Inc.). A low voltage is applied to the ruthenylated TNF-α immune complexes, which in the presence of TPA (the active component in Origlo), results in a cyclical redox reaction generating light at […]. The amount of secreted TNF-α in the presence of compound compared with that in the presence of DMSO vehicle alone (HI control) is calculated using the formula: % control (POC)=(cpd−average LO)/(average HI−average LO)*100. Data (consisting of POC and inhibitor concentration in μM) is fitted to a 4-parameter equation (y=A+((B−A)/(1+((x/C)^D))), where A is the minimum y (POC) value, B is the maximum y (POC), C is the x (cpd concentration) at the point of inflection and D is the slope factor) using a Levenburg-Marquardt non-linear regression algorithm.
row,Compound,IC50 [µM]
1,"CC(C)NC[C@H]1CCCN1c1cc(-c2ccncc2)c(-c2ccc3ccccc3c2)c(=O)n1C [Example 30, 6-[2-(Isopropylamino-methyl)-pyrrolidin-1-yl]-1-methyl-3-naphthalen-2-yl-1H-4[4,4′]bipyridinyl-2-one]",≤ 20
2,"COC[C@@H]1CCCN1c1nc(-c2ccnc(Cl)c2)c(-c2cccc(C)c2)c(=O)n1C [Example 9, 6-(2-Chloro-pyridin-4-yl)-2-(2-methoxymethyl-pyrrolidin-1-yl)-3-methyl-5-m-tolyl-3H-pyrimidin-4-one]",≤ 20
3,"Cn1c(C2CCCN2CCNC(=O)OC(C)(C)C)cc(-c2ccncc2)c(-c2ccc3ccccc3c2)c1=O (centres unmarked) [Example 27, {2-[2-(1-Methyl-5-naphthalen-2-yl-6-oxo-1,6-dihydro-[4,4′]bipyridinyl-2-yl)-pyrrolidin-1-yl]-ethyl}-carbamic acid tert-butyl ester]",≤ 20
4,"C=Cc1cccc(-c2c(-c3ccncc3)nc(N3CCC[C@@H]3CNC(C)C)n(C)c2=O)c1 [Example 5, 2-[2-(Isopropylamino-methyl)-pyrrolidin-1-yl]-3-methyl-6-pyridin-4-yl-5-(3-vinyl-phenyl)-3H-pyrimidin-4-one]",≤ 20
5,"CC(C)NC[C@H]1CCCN1c1nc(-c2ccncc2)c(-c2cccc(C3CC3)c2)c(=O)n1C [Example 6, 5-(3-Cyclopropyl-phenyl)-2-[2-(isopropylamino-methyl)-pyrrolidin-1-yl]-3-methyl-6-pyridin-4-yl-3H-pyrimidin-4-one]",≤ 20
6,CC(C)NC[C@H]1CCCN1c1nc(-c2ccncc2)c(-c2ccc(Cl)cc2)c(=O)n1C [Example 1],≤ 20
7,"CC(C)NCC1CCCN1c1cc(-c2ccncc2)c(-c2ccc(Cl)cc2)c(=O)n1C (centres unmarked) [Example 31, 3-(4-Chlorophenyl)-1-methyl-6-(2-{[(methylethyl)amino]methyl}pyrrolidinyl)-4-(4-pyridyl)hydropyridin-2-one]",≤ 20
8,"CC(C)NCC1CCCN1c1cc(-c2ccncc2)c(-c2ccc3ccccc3c2)nn1 (centres unmarked) [Example 14, Isopropyl-[1-(6-naphthalen-2-yl-5-pyridin-4-yl-pyridazin-3-yl)-pyrrolidin-2-ylmethyl]-amine]",≤ 20
9,"CC(C)N[C@H](Cc1ccccc1)CN1CCC(c2cc(-c3ccncc3)c(-c3ccc4ccccc4c3)c(=O)n2C)CC1 [Example 20, 1-{(2R)-Isopropylamino-3-phenyl-propyl}-1′-methyl-5′-naphthalen-2-yl-1,2,3,4,5,6-hexahydro-1′H-[4,2′;4′,4″]terpyridin-6′-one]",≤ 20
10,"CC(C)NC[C@H]1CCCN1c1c(Cl)c(-c2ccncc2)c(-c2ccc3ccccc3c2)c(=O)n1C (stereo in doubt) [Example 29, 5-Chloro-6-[2-(isopropylamino-methyl)-pyrrolidin-1-yl]-1-methyl-3-naphthalen-2-yl-1H-[4,4′]bipyridinyl-2-one]",≤ 20
11,"Cn1c(C2CCN(CC(C)(C)O)C2)cc(-c2ccncc2)c(-c2ccc3ccccc3c2)c1=O (centres unmarked) [Example 26, 6-[1-(2-Hydroxy-2-methyl-propyl)-pyrrolidin-3-yl]-1-methyl-3-naphthalen-2-yl-1H-[4,4′]bipyridinyl-2-one]",≤ 20
12,"CC(C)N[C@@H](Cc1ccccc1)CN1CCC(c2cc(-c3ccncc3)c(-c3ccc4ccccc4c3)c(=O)n2C)CC1 [Example 23, 1-{(2S)-Isopropylamino-3-phenyl-propyl}-1′-methyl-5′-naphthalen-2-yl-1,2,3,4,5,6-hexahydro-1′H-[4,2′;4′,4″]terpyridin-6′-one]",≤ 20
13,"Cn1c(C2CCN(CCNC(=O)OC(C)(C)C)C2)cc(-c2ccncc2)c(-c2ccc3ccccc3c2)c1=O (centres unmarked) [Example 24, {2-[3-(1-Methyl-5-naphthalen-2-yl-6-oxo-1,6-dihydro-[4,4′]bipyridinyl-2-yl)-pyrrolidin-1-yl]-ethyl}-carbamic acid tert-butyl ester]",≤ 20
14,"Cc1cccc(-c2c(-c3ccncc3)nc(N3CCC[C@@H]3CNC(C)C)n(C)c2=O)c1 [Example 7, 2-[2-(Isopropylamino-methyl)-pyrrolidin-1-yl]-3-methyl-6-pyridin-4-yl-5-m-tolyl-3H-pyrimidin-4-one]",≤ 20
15,"Cn1c(C2CNC(CO)C2)cc(-c2ccncc2)c(-c2ccc3ccccc3c2)c1=O (centres unmarked) [Example 15, 6-[5-(Hydroxymethyl)pyrrolidin-3-yl]-1-methyl-3-(2-naphthyl)-4-(4-pyridyl)-hydropyridin-2-one]",≤ 20
16,"C[C@@H](O)CN1CCC(c2cc(-c3ccncc3)c(-c3ccc4ccccc4c3)c(=O)n2C)CC1 [Example 11, 1-(2R-Hydroxy-propyl)-1′-methyl-5′-naphthalen-2-yl-1,2,3,4,5,6-hexahydro-1′H-[4,2′;4′,4″]terpyridin-6′-one]",≤ 20
17,"Cn1c(C2CCN(CC(C)(C)O)CC2)cc(-c2ccncc2)c(-c2ccc3ccccc3c2)c1=O [Example 13, 1-(2-Hydroxy-2-methyl-propyl)-1′-methyl-5′-naphthalen-2-yl-1,2,3,4,5,6-hexahydro-1′H-[4,2′;4′,4″]terpyridin-6′-one]",≤ 20
18,"CC(C)N1CC(c2cc(-c3ccncc3)c(-c3ccc4ccccc4c3)c(=O)n2C)CC1CO (centres unmarked) [Example 16, 6-[5-(hydroxymethyl)-1-(methylethyl)pyrrolidin-3-yl]-1-methyl-3-(2-naphthyl)-4-(4-pyridyl)hydropyridin-2-one]",≤ 20
19,"Cn1c(C2CCCN2CCN)cc(-c2ccncc2)c(-c2ccc3ccccc3c2)c1=O (centres unmarked) [Example 28, 6-[1-(2-Amino-ethyl)-pyrrolidin-2-yl]-1-methyl-3-naphthalen-2-yl-1H-[4,4′]bi-pyridinyl-2-one]",≤ 20
20,"Cn1c(C2CCN(C[C@@H](N)Cc3ccccc3)CC2)cc(-c2ccncc2)c(-c2ccc3ccccc3c2)c1=O [Example 22, 1-{(2S)-Amino-3-phenyl-propyl}-1′-methyl-5′-naphthalen-2-yl-1,2,3,4,5,6-hexahydro-1′H-[4,2′;4′,4″]terpyridin-6′-one]",≤ 20
21,"Cn1c(C2CCN(C[C@@H](Cc3ccccc3)NC(=O)OC(C)(C)C)CC2)cc(-c2ccncc2)c(-c2ccc3ccccc3c2)c1=O [Example 18, [(1R)-Benzyl-2-(1′-methyl-5′-naphthalen-2-yl-6′-oxo-3,4,5,6,1′,6′-hexahydro-2H-[4,2′;4′,4″]terpyridin-1-yl)-ethyl]-carbamic acid tert-butyl ester]",≤ 20
22,"Cn1c(C2CCN(C[C@H](Cc3ccccc3)NC(=O)OC(C)(C)C)CC2)cc(-c2ccncc2)c(-c2ccc3ccccc3c2)c1=O [Example 21, [(1S)-Benzyl-2-(1′-methyl-5′-naphthalen-2-yl-6′-oxo-3,4,5,6,1′,6′-hexahydro-2H-[4,2′;4′,4″]terpyridin-1-yl)-ethyl]-carbamic acid tert-butyl ester]",≤ 20
23,"COC[C@@H]1CCCN1c1nc(-c2ccnc(N[C@@H](C)c3ccccc3)c2)c(-c2cccc(C)c2)c(=O)n1C [Example 10, 2-(2-Methoxymethyl-pyrrolidin-1-yl)-3-methyl-6-[2-(1-phenyl-ethylamino)-pyridin-4-yl]-5-m-tolyl-3H-pyrimidin-4-one]",≤ 20
24,"CC(C)NC[C@H]1CCCN1c1nc(-c2ccncc2)c(-c2cccc(Br)c2)c(=O)n1C [Example 4, 5-(3-Bromo-phenyl)-2-[2-(isopropylamino-methyl)-pyrrolidin-1-yl]-3-methyl-6-pyridin-4-yl-3H-pyrimidin-4-one]",≤ 20
25,"Cn1c(C2CCN(C[C@H](N)Cc3ccccc3)CC2)cc(-c2ccncc2)c(-c2ccc3ccccc3c2)c1=O [Example 19, 1-{(2R)-Amino-3-phenyl-propyl}-1′-methyl-5′-naphthalen-2-yl-1,2,3,4,5,6-hexahydro-1′H-[4,2′;4′,4″]terpyridin-6′-one]",≤ 20
26,"Cn1c(N2CCCC2CO)cc(-c2ccncc2)c(-c2ccc(Cl)cc2)c1=O (centres unmarked) [Example 17, 3-(4-chlorophenyl)-6-[2-(hydroxymethyl)pyrrolidinyl]-1-methyl-4-(4-pyridyl)-hydropyridin-2-one]",≤ 20
27,CC(C)NC[C@@H]1CCCN1c1nc(-c2ccncc2)c(-c2ccc(Cl)cc2)c(=O)n1C [Example 2],≤ 20
28,"CC(C)NC[C@H]1CCCN1c1nc(-c2ccncc2)c(-c2ccc3ccccc3c2)c(=O)n1C [Example 8, 2-[2-(Isopropylamino-methyl)-pyrrolidin-1-yl]-3-methyl-5-naphthalen-2-yl-6-pyridin-4-yl-3H-pyrimidin-4-one]",≤ 20
29,"CC(O)CN1CCC(c2cc(-c3ccncc3)c(-c3ccc4ccccc4c3)c(=O)n2C)C1 (centres unmarked) [Example 25, 6-[1-(2-Hydroxy-propyl)-pyrrolidin-3-yl]-1-methyl-3-naphthalen-2-yl-1H-[4,4′]bipyridinyl-2-one]",≤ 20
